According to patent US8431888B2, “Electrospray and nanospray ionization of discrete samples in droplet format” (priority 2009, dated 2013):
Where two headings read alike, the source gives them in different places.

Tests used:
[1] = molecular target: T1, acetylcholinesterase (AchE) (Electrophorus electricus, UniProt O42275); test: biochemical; assay type: biochemical; conditions: for AchE inhibition in screen (choline production): compound tested at 100 μM, triplicate, peak area ratio of choline to internal standard; for IC50: 10 inhibitor concentrations, 20 min at room temperature, choline formation, sigmoidal dose-response fit
T1 construct: purchased Sigma (St. Louis, Mo.) Type VI-S (catalogue number not given)
T1 sequence (O42275 24-633): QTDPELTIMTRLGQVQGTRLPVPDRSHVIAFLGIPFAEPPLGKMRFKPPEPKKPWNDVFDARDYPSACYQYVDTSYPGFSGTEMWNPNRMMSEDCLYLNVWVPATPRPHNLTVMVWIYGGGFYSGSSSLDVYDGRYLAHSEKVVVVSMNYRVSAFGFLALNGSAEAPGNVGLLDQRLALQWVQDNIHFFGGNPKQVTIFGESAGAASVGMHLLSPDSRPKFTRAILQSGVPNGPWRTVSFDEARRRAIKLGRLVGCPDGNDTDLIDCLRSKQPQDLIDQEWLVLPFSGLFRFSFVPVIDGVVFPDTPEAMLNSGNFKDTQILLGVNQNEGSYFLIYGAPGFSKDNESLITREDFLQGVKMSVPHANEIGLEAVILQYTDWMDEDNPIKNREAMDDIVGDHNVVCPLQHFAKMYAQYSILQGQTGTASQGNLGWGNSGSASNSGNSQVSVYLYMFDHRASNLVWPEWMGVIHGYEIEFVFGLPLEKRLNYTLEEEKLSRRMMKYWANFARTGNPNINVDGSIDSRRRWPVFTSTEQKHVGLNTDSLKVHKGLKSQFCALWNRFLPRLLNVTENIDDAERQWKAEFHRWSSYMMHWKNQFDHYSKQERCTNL

AchE = conditions: read-out: previously reported IC50, cited from earlier work
[2] = literature values, experimental conditions not identical

Compound	AchE inhibition in screen (choline production) [1]	IC50 [1] [µM]	IC50 (AchE) [µM]	IC50 (AchE; [2]) [µM]
C[S+](C)[O-] [DMSO]	some inhibition	–	–	–
CC[N+](C)(C)c1cccc(O)c1 [edrophonium]	–	63 ± 11	5.4	–
CC(C)NCC(O)c1ccc(O)c(O)c1 (centres unmarked) [isoproterenol]	some inhibition	–	–	–
CCOC(=O)CC(SP(=S)(OC)OC)C(=O)OCC (centres unmarked) [malathion]	–	480 ± 70	–	370
CN(C)C(=O)Oc1cccc([N+](C)(C)C)c1 [neostigmine]	–	–	0.0113	–
